Entries after “also recorded” stand apart in the source; their conditions may differ.
Experiments:
[1] = tested on: BV-2 cells; experiment: Cellular ATP assay; type: cell-based; conditions: 10 μM, 2 h
Method: BV-2 cells were seeded at a density of 5×10^5 cells per well in 6-well plates and incubated for 24 h. BV-2 cells were treated with 10 μM CIAC001 or 10 μM Compound 19b for 2 h. Cellular ATP was measured by an enhanced ATP assay kit (S0027-4, Beyotime Biotechnology Co., Ltd., Shanghai, China).

[2] = Pharmacokinetic profiles in brain and plasma after oral administration; type: in vivo, mice
Method: Following administration, mice (BALB/c, male, 20-25 g) were sacrificed at 0.5, 1, 2, 3, and 4 h. The blood and brain tissue were collected and extracted with acetonitrile.

[3] = target: T1, PKM2 tetramer / monomer (Mus musculus, UniProt P52480); experiment: Western blot of PKM2 tetramer and monomer in LPS-treated cells; type: cell-based
T1 construct: endogenous in cells; host or cells: BV-2 cells
T1 sequence (P52480 whole entry): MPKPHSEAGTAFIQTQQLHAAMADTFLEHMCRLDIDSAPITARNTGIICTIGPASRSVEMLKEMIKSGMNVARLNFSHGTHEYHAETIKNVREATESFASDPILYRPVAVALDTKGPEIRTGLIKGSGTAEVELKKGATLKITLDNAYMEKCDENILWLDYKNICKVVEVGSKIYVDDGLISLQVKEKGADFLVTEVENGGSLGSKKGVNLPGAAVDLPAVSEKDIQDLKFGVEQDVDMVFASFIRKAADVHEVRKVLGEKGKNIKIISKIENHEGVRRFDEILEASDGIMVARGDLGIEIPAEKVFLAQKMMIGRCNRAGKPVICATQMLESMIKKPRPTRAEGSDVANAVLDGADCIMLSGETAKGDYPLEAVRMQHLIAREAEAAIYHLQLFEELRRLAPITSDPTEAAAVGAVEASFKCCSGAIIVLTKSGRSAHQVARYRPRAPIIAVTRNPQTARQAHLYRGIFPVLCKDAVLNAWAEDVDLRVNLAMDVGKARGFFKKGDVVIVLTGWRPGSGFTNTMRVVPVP
From the text: ImageJ was used for densitometric analysis.

[4] = target: T2, endogenous PKM2 in BV-2 cell lysate (Mus musculus, UniProt P52480); experiment: Cellular thermal shift assay (CETSA); type: binding
T2 construct: endogenous in cells; host or cells: BV-2 cells
T2 sequence (P52480 whole entry): as above
Method: For CETSA experiments, BV-2 cells were seeded at a density of 4×10^5 cells/mL in 10 cm petri dishes. After 24 h, the medium was removed, and cells were washed with cold PBS (3.0 mL) 3 times and harvested by scraping. Cells were then isolated by centrifugation (1000 g, 5 min, 4° C.) and resuspended in cell lysis buffer (P0013, Beyotime Biotechnology) with the 1% protease inhibitor cocktail and then incubated on ice for 10 min. The lysates were centrifuged (12,000 g, 15 min, 4° C.), and the supernatants were collected. CIAC001 (50 μM) or vehicle control was incubated with BV-2 cell lysate supernatant for 2 h at 20° C. The lysate supernatants were divided into 60 μL each in microtubes. The lysates were heated at different temperatures (37-72° C.) for 5 min on a Long Gene A200 thermal cycler and cooled down at 25° C. for another 3 min. The samples were stored on ice until centrifugation (20,000 g, 4° C., 20 min) to remove precipitates. The lysate supernatants were denatured in 2× Laemmli sample buffer at 100° C. for 8 min for western blotting with the PKM2 antibody

[5] = Pharmacokinetic profiles in brain and plasma after oral administration; type: in vivo, mice; conditions: male, BALB/c, mouse, 10 mg/kg p.o., read-out: B/P ratio
[6] = tested on: 3×Tg Alzheimer's disease mice; experiment: Learning and memory tests in Alzheimer's disease model mice (Morris water maze, Y-maze); type: in vivo; conditions: i.p., 45 days
From the text: For Alzheimer's disease behavioral experiments (Morris water maze, open field experiment, novel object recognition, Y-maze, and elevated cross maze), triple transgenic mouse models (B6:129-Psen1tm1Mpm Tg (APPswe, tauP301L) 1Lfa/J, 3×Tg) were purchased from the Jax Laboratory in the United States. The wild-type mice (C57BL/6J, WT) were purchased from Beijing Vital River Laboratory Animal Technology Co., Ltd. After 45 days of intraperitoneal injection of CIAC001, all mice were subjected to subsequent behavioral experiments. In order to minimize the use of mice, the mice are first tested for sufficient physical strength and normal mental states. Only one behavioral experiment is conducted per day based on the following schedule: day 1: open field test; day 2-3: novel object recognition; day 3: elevated plus maze; day 4: Y-maze; day 5-13: Morris water maze. […]
Place navigation training was performed from days 1 to 5. […] The time taken for the mouse to find the platform was recorded, representing the mouse's escape latency. […]
The spatial exploration test was conducted 24 hours and 72 hours after completion of place navigation training. The test conducted at 24 hours assessed short-term memory, while the test performed at 72 hours assessed long-term memory. […]

Q: For C=C(C)[C@@H]1CCC(C)=C[C@H]1c1c(O)cc(C(C)n2nccn2)cc1O (stereo partly drawn) [CIAC001, (1′R,2′R)-4-(1-(2H-1,2,3-Triazol-2-yl)ethyl)-5′-methyl-2′-(prop-1-en-2-yl)-1′,2′,3′,4′-tetrahydro-[1,1′-biphenyl]-2,6-diol], which ATP level [1] is on record?
A: Its ATP level is “increase the ATP level”.

Q: What about the AUC0→t ([2]; brain, 10 mg/kg p.o., mice) of the same compound?
A: The AUC0→t was 172.8 ng·h/g.

Q: And the “AUC0→∞” value ([2]; brain, 10 mg/kg p.o., mice)?
A: The value was 191.3 ng·h/g.

Q: What about the MRT ([2]; brain, 10 mg/kg p.o., mice) of the same compound?
A: Its MRT is 54 min.

Q: And the “brain Cmax” value ([2]; brain, 10 mg/kg p.o., mice)?
A: The value was 175.0 ng/g.

Q: And the t1/2 ([2]; brain, 10 mg/kg p.o., mice)?
A: Its t1/2 is 48 min.

Q: What about the Kp ([2]; male, BALB/c, mouse, brain / plasma, oral, 10 mg/kg p.o., read-out: B/P ratios within the first 3 h after administration) of the same compound?
A: The Kp was over 2.

Q: And the Kp at 0.5 h ([2]; male, BALB/c, mouse, brain / plasma, po, 0.5 h, 10 mg/kg p.o., read-out: B/P ratio)?
A: The Kp at 0.5 h was 3.31 ± 0.382.

Q: And the Kp at 1 h ([2]; male, BALB/c, mouse, brain / plasma, po, 1 h, 10 mg/kg p.o., read-out: B/P ratio)?
A: Its Kp at 1 h is 3.63 ± 0.425.

Q: And the Kp at 2 h ([2]; male, BALB/c, mouse, brain / plasma, po, 2 h, 10 mg/kg p.o., read-out: B/P ratio)?
A: The Kp at 2 h was 4.12 ± 1.44.

Q: What about the Kp at 3 h ([2]; male, BALB/c, mouse, brain / plasma, po, 3 h, 10 mg/kg p.o., read-out: B/P ratio) of the same compound?
A: Its Kp at 3 h is 5.76 ± 1.34.

Q: What about the Tmax ([2]; male, BALB/c, mouse, po, brain, 10 mg/kg p.o., mice, read-out: Tmax) of the same compound?
A: Its Tmax is 18 min.

Q: What about the “BBB permeability and CNS pharmacokinetics compared to CBD” value ([2]; oral administration) of the same compound?
A: The value was “better BBB permeability and CNS pharmacokinetics”.

Q: What about the “brain Cmax relative to CBD” value ([2]; vs CBD, 10 mg/kg p.o.) of the same compound?
A: Its value is “approximately 2 times”.

Q: And the “LPS-induced decline of the PKM2 tetramer” value [3]?
A: Its value is “reversed the LPS-induced decline of the PKM2 tetramer”.

Q: What about the “LPS-induced rise of the PKM2 monomer” value [3] of the same compound?
A: The value was “inhibit the LPS-induced rise of the PKM2 monomer; also recorded: inhibited LPS-induced rise of the PKM2 monomer”.

Q: What about the ΔTm at 50 µM [4] of the same compound?
A: The ΔTm at 50 µM was 3.9 ± 1.3 °C.

Q: What about the Kp at 0.083 h ([5]; 0.083 h) of the same compound?
A: Its Kp at 0.083 h is 2.07 ± 0.907.

Q: And the Kp at 0.25 h ([5]; 0.25 h)?
A: The Kp at 0.25 h was 2.78 ± 0.389.

Q: What about the “learning and memory abilities of Alzheimer's disease mice” value [6] of the same compound?
A: The value was “improves learning and memory abilities of Alzheimer's disease mice at a lower dose than cannabidiol”.

Reference: patent US20260242320A1, “USE OF CANNABIDIOL DERIVATIVE IN PREPARATION OF MEDICAMENT” (priority 2023, published 2026)
